The source of these data is patent US4454123A, “O-xylopyranoside series compounds and methods of use” (Seikagaku Kogyo Co. Ltd., priority 1980, dated 1984).

“Also recorded” adds a separate entry of the source. Read-outs that look alike come from different tables or passages of the source.

One data set deals with Sarcoma-180. Put plainly: Activity against a transplantable cancer, Sarcoma-180 (Test Example 7). The class given is in vivo, ICR-JCL mice. To be noted: Mus musculus, Sarcoma-180, ip, 240 h, 100 mg/kg ip once a day for 10 days; read-out: I.R. (inhibition ratio, Sarcoma-180 tumor weight). Here is the method: Sarcoma-180 cells (1×10^6 cells) were inoculated subcutaneously into the back skin of each of ICR-JCL mice.
Chemotherapy was given intraperitoneally 24 hrs. after inoculation and performed once a day for 10 days. Each specimen to be administered was prepared by dissolving or suspending 30 mg of each compound according to this invention in 1 ml of a physiological saline or in 1 ml of a 0.2% solution of carboxymethylcellulose in a physiological saline, respectively.
All the solutions and the suspensions thus prepared were injected at a volume of 0.1 ml as a single dose (100 mg/Kg).
The inhibition ratio (%) was calculated according to the following equation: […]
wherein T represents the mean weight of the tumor Sarcoma-180 in a tested group of mice; and C represents the mean weight of the tumor in a control group of mice.

Data set [1] can be described thus: Acute toxicity (LD50) by oral or intraperitoneal administration to ddY mice (Test Example 6). The class given is in vivo. To be noted: mouse, in vivo, 7 days. As for the experimental part:
The acute toxicity of the compound according to this invention was determined by forced oral or intraperitoneal administration thereof to ddY mice.
To prepare each specimen to be administered, a predetermined amount of each compound shown in Table 5 was dissolved in a physiological saline or suspended in a 0.2% solution of carboxymethylcellulose in a physiological saline. Each specimen was administered orally to a ddY mouse via its stomach tube or injected intraperitoneally.

The test system of data set [2] is synthesis of chondroitin sulfate in epiphysial cartilages. Put plainly: Effect of xyloside compounds on synthesis of [35S]glycosaminoglycan (chondroitin sulfate) in epiphysial cartilage culture (Test Examples 1-3). Format: cell-based, chick embryos. The settings on record: for concentration required compared with O-β-D-xylopyranoside compounds / total 35S uptake amount of glycosaminoglycan as the concentration of the xyloside compound rose / effectiveness as initiator for the synthesis of chondroitin sulfate: in words; for total 35S uptake amount of glycosaminoglycan as the concentration of the xyloside compound rose: concentration in culture medium varied; for activity at 1000 µM: Gallus gallus. As for the experimental part:
(§1) Epiphysial cartilages were taken from chick embryos aged 12 days in the Tyrode's medium under ice-cooling, and excess tissues were removed therefrom. To 150 mg. of cartilages corresponding to five embryos, 5 ml. of BGJb [a completely synthetic culture medium prepared according to a recipe of GIBCO (Grand Island Biological Company)] was added, followed by pre-incubation at a temperature of 37° C. After replacing the culture medium, further 1 ml. of BGJb and 5 μCi Na2^35 SO4 were added, and the culture system was kept at 37° C. for 3 hours. The culture medium was then replaced by 1 ml. of a fresh chase medium containing no radio active isotope. After keeping the culture system at 37° C. for 1 hour, the culture medium was separated from the tissues. To study the effects of the xyloside compound on the synthesis of glycosaminoglycan, the xyloside compound was added in the predetermined concentration to the pre-incubation and incubation media.
(§2) After the incubation, the labeled medium containing Na2^35 SO4 was combined with the chase medium. Pronase-P (trade name) (available from Kaken Kagaku Co., Ltd.) was added thereto in a 0.5 M tris-HCl buffer solution (pH 8.0), and the resulting mixture was digested at 50° C. for 16 hours. The digested reaction mixture was then subjected to gel filtration through a column (1.5×14 cm.) packed with Bio-Gel P-2 (available from Bio-Rad Company) using a 0.2 M ammonium formate solution as an eluate. In this way, the Vo fraction was collected and was then freeze-dried to give a crude glycosaminoglycan.
(§3) On the other hand, ice-cold 4 M guanidine hydrochloride was added to the tissues which were previously separated from the culture medium. The resulting mixture was left to stand overnight at a temperature of -20° C., and then homogenized. The obtained homogenate was left to stand overnight at room temperature and centrifuged at a speed of 8,500 rpm to obtain a supernatant. To the obtained liquid, water was added in an amount threefold that of the supernatant. Then, a 95% ethyl alcohol (containing 1.3% of potassium acetate) was added to the resulting mixture in an amount threefold that of the mixture to obtain a precipitate. This procedure was repeated twice, and the combined precipitates were dried in a desiccator. The obtained precipitates were dissolved in a 0.02 M tris-HCl buffer solution (pH 8.0) and digested with Pronase-P in the manner similar to the culture medium described above, thereby obtaining a crude glycosaminoglycan.
As the xyloside compound, conventional O-paranitrophenyl-β-D-xylopyranoside, and two compounds according to the present invention viz. C-n-butyl-β-D-xylopyranoside and C-ethyl-β-D-xylopyranoside were used. The effects of these xyloside compounds on the total amount of [^35 S] glycosaminoglycan synthesized (^35 S uptake amount), the amount thereof liberated to the culture medium and the amount thereof remaining in the tissues were as shown in FIGS. 1 to 3.
In each Figure, the vertical axis denotes the amount of [^35 S]chondroitin sulfate (^35 S cpm×10^-4 /μmol.uronic acid) and the horizontal axis denotes the concentration (mM) of each xylopyranoside compound in the culture medium.
(§4) According to the same procedure as in Test example 1, a crude glycosaminoglycan was obtained.
As the xyloside compound, conventional O-paranitrophenyl β-D-xylopyranoside and N-para(sodiumoxycarbonyl)phenyl-D-xylopyranosylamine, and three compounds according to the present invention viz. para(sodiumoxycarbonyl)phenyl β-D-xylopyranoside, C-para(sodiumoxycarbonyl)benzyl-β-D-xylopyranoside and para(sodiumoxycarbonyl)phenyl 1-thio-β-D-xylopyranoside were used. The effects of these xyloside compounds on the total amount of [^35 S]glycosaminoglycan synthesized (^35 S uptake amount) were shown in FIGS. 3 to 7. […]

The test system of data set [3] is synthesis of [35S]glycosaminoglycan in epiphysial cartilages. Description: Recovery in the rate of 35S uptake in cartilage in which glycosaminoglycan synthesis was inhibited by cycloheximide (Test Examples 4, 5). To be noted: for effectiveness as initiator for the synthesis of chondroitin sulfate: 1.0 mM solution in DMSO, in words; for Rate of 35S uptake: cycloheximide 0.3 mM; for 35S uptake as compared with the case where no xylopyranoside was added: 0.02 mM solution in DMSO. The class given is cell-based, chick embryos. As for the experimental part: as §1, §2, §3, §4
As the xyloside compound, publicly-known methyl 1-thio-β-D-xylopyranoside and n-butyl 1-thio-β-D-xylopyranoside,and six compounds according to the present invention viz. n-heptyl 1-thio-β-D-xylopyranoside, n-nonyl 1-thio-β-D-xylopyranoside, n-decyl 1-thio-β-D-xylopyranoside, n-undecyl […], n-lauryl 1-thio-β-D-xylopyranoside and n-cetyl 1-thio-β-D-xylopyranoside were used. The effects of these compounds on the total amount of [^35 S]glycosaminoglycan synthesized (^35 S uptake amount) were investigated.
That is, after the effect of the addition of DMSO (dimethyl sulfoxide) which is a solvent was investigated, […], thereby inhibiting the synthesis of [^35 S]glycosaminoglycan by around up to 95%. Subsequently, to the medium in which the synthesis of glycosaminoglycan had been inhibited, there was added each solution of the xyloside compound in DMSO having various concentrations to investigate the recovery in the rate of the ^35 S uptake (the relative value expressed by percentage ^35 S uptake relative to the amount of uptake in a control medium to which no xylpyranoside compound was added).
According to the same procedure as in Example 1, a crude glycosaminoglycan was obtained. […]

Setting [4] is: ip, intraperitoneal, read-out: LD50 (ip).

For orientation: LD50 means the dose expected to kill half of the subjects tested. Consider `O=C(O)c1ccc(O[C@@H]2OC[C@@H](O)[C@H](O)[C@H]2O)cc1` [Para(potassiumoxycarbonyl)phenyl-β-D-xylopyranoside], for which, in the data set with Sarcoma-180, the inhibition in vivo at 100 mg/kg worked out at 44.8%. For the same molecule, the LD50 at 168 h is 3020 mg/kg in data set [1] (setting [4]) and 9800 mg/kg in data set [1] (po, read-out: LD50 (po)).

With `O[C@@H]1[C@@H](O)[C@H](Cc2ccccc2)OC[C@H]1O` [C-Benzyl-1-β-D-xylopyranoside, C-Benzyl-β-D-xylopyranoside], the inhibition in vivo at 100 mg/kg in the data set with Sarcoma-180 came to 30.9%. Further, the 50% lethal dose (LD50) at 168 h in data set [1] (setting [4]) was 2400 mg/kg; in data set [1] (po, read-out: LD50 (po)), 7200 mg/kg.

On to `O=C(O)c1ccc(NC2OC[C@@H](O)[C@H](O)[C@H]2O)cc1` (stereo partly drawn) [N-para(sodiumoxycarbonyl)phenyl-D-xylopyranosylamine], for which, in data set [2], the “concentration required compared with O-β-D-xylopyranoside compounds” value is reported as “requires higher concentrations as compared with O-paranitrophenyl-β-D-xylopyranoside”; the “total 35S uptake amount of glycosaminoglycan as the concentration of the xyloside compound rose” value (“total 35S uptake amount” below) is “shows a similar tendency; also recorded: does not change remarkably within the range of the concentration of 0 to 20 mM of the compound and that the increase in the total uptake amount thereafter is mild”.

For `NC(=O)c1ccc(NC2OC[C@@H](O)[C@H](O)[C@H]2O)cc1` (stereo partly drawn) [N-carbamoylphenyl-D-xylopyranosylamine, N-Paracarbamoylphenyl-D-xylopyranosylamine], in data set [2], the “concentration required compared with O-β-D-xylopyranoside compounds” value is “requires higher concentration as compared with the O-β-D-xylopyranoside compounds”, the “effectiveness as initiator for the synthesis of chondroitin sulfate” value (shortened to “effectiveness as initiator”) is recorded as “good initiator for the synthesis of chondroitin sulfate” and the “total 35S uptake amount” value is given as “increased as the concentration of the xyloside compound rose”.

Regarding `CCCCCC[C@@H]1OC[C@@H](O)[C@H](O)[C@H]1O` [C-n-hexyl-β-D-xylopyranoside, C-n-Hexyl-β-D-xylopyranoside], the “effectiveness as initiator” value in data set [3] was “extremely effective initiators for the synthesis of chondroitin sulfate”. Besides, the “Rate of 35S uptake” value is 82.0% in data set [3] (xyloside 0.2 mM, DMSO 0.1%); 148.0% in data set [3] (xyloside 0.5 mM, DMSO 0.1%); 196.0% in data set [3] (xyloside 1.0 mM, DMSO 0.1%).

Take `O=C(O)c1ccc(S[C@@H]2OC[C@@H](O)[C@H](O)[C@H]2O)cc1` [Para(lithiumoxycarbonyl)phenyl 1-thio-β-D-xylopyranoside]: the inhibition in vivo at 100 mg/kg in the data set on Sarcoma-180 came out at 47.2%. The 50% lethal dose (LD50) at 168 h in data set [1] (setting [4]) worked out at 2700 mg/kg; in data set [1] (po, read-out: LD50 (po)), 7800 mg/kg.

As to `CCCCCCCCS[C@@H]1OC[C@@H](O)[C@H](O)[C@H]1O` [n-octyl 1-β-D-xylopyranoside, n-Octyl 1-thio-β-D-xylopyranoside], in data set [3], the “35S uptake as compared with the case where no xylopyranoside was added” value is “around twice”.

On to `CCCCCCC[C@@H]1OC[C@@H](O)[C@H](O)[C@H]1O` [C-n-Heptyl-β-D-xylopyranoside], for which the inhibition in vivo at 100 mg/kg in the data set on Sarcoma-180 amounted to 54.8%. The LD50 at 168 h in data set [1] (setting [4]) came out at 1040 mg/kg; in data set [1] (po, read-out: LD50 (po)), 4200 mg/kg. For the same molecule, the “effectiveness as initiator” value in data set [3] is reported as “extremely effective initiators for the synthesis of chondroitin sulfate”. Further, the “Rate of 35S uptake” value in data set [3] (xyloside 0.2 mM, DMSO 0.1%) is recorded as 114.0%; in data set [3] (xyloside 0.5 mM, DMSO 0.1%), 183.0%; in data set [3] (xyloside 1.0 mM, DMSO 0.1%) it was 193.0%.

For the molecule `CC(C)CCS[C@@H]1OC[C@@H](O)[C@H](O)[C@H]1O` [Isoamyl 1-thio-β-D-xylopyranoside], the inhibition in vivo at 100 mg/kg in the data set with Sarcoma-180 was 35.6%. Further, the LD50 at 168 h came out at 1850 mg/kg in data set [1] (setting [4]) and 5800 mg/kg in data set [1] (po, read-out: LD50 (po)).

For `CCCCCCCS[C@@H]1OC[C@@H](O)[C@H](O)[C@H]1O` [n-heptyl 1-thio-β-D-xylopyranoside, n-Heptyl 1-thio-β-D-xylopyranoside], the “35S uptake as compared with the case where no xylopyranoside was added” value in data set [3] is “around twice”.

As for `O=[N+]([O-])c1ccc(O[C@@H]2OC[C@@H](O)[C@H](O)[C@H]2O)cc1` [O-paranitrophenyl-β-D-xylopyranoside], in data set [2] (at 1 mM, read-out: [35S]glycosaminoglycan liberated to the culture medium), the activity at 1000 µM was determined as 95%. The activity at 1000 µM in data set [2] (at 1 mM, read-out: [35S]glycosaminoglycan remaining in the tissues) was 11%. In data set [2] (at 1 mM), the “35S uptake of glycosaminoglycan” value is recorded as 40800 cpm, the “35S uptake of glycosaminoglycan relative to control” value is recorded as 2.35 times that of the control and the “[35S]glycosaminoglycan remaining in the tissues” value is 11 % of the control. Besides, in data set [2], the “effectiveness as initiator” value is reported as “extremely effective as an initiator for the synthesis of chondroitin sulfate; also recorded: extremely effective as the initiator for the synthesis of condroitin sulfate” and the “total 35S uptake amount” value is recorded as “increased”.

As usually defined, the inhibition is the share of the control response that was lost under treatment. As for `C[C@@H]1C[C@@H]([C@H](O)CC2CC(=O)NC(=O)C2)C(=O)[C@@H](C)C1` [cycloheximide, reference compound], the inhibition at 30 µM in data set [3] (Gallus gallus, read-out: inhibition of the synthesis of [35S]glycosaminoglycan) was about 95%. Besides, the “Rate of 35S uptake” value in data set [3] (no xyloside, DMSO 0%, relative to control medium) stood at 5.5%; in data set [3] (no xyloside, DMSO 0.1%, relative to control medium) it was 4.9%; in data set [3] (no xyloside, DMSO 0.2%, relative to control medium), 6.1%; in data set [3] (no xyloside, DMSO 0.5%, relative to control medium) it was 6.1%; in data set [3] (no xyloside, DMSO 1.0%, relative to control medium), 5.8%.

With `O=C(O)c1ccc(C[C@@H]2OC[C@@H](O)[C@H](O)[C@H]2O)cc1` [C-Para(lithiumoxycarbonyl)benzyl-β-D-xylopyranoside], the inhibition in vivo at 100 mg/kg in the data set on Sarcoma-180 is 44.7%. Also, the LD50 at 168 h in data set [1] (setting [4]) is 2500 mg/kg; in data set [1] (po, read-out: LD50 (po)) it was 8600 mg/kg.

Take `CC(C)S[C@@H]1OC[C@@H](O)[C@H](O)[C@H]1O` [Isopropyl 1-thio-β-D-xylopyranoside]: in the data set with Sarcoma-180, the inhibition in vivo at 100 mg/kg was 30.4%. For the same molecule, the LD50 at 168 h is 2200 mg/kg in data set [1] (setting [4]) and 6700 mg/kg in data set [1] (po, read-out: LD50 (po)).
